{"source": "paper PMC11247118", "about": "(CPT: Pharmacometrics & Systems Pharmacology, 2024)", "key": {"Gram-positive bacteria": {"tested_on": "Gram-positive bacteria", "conditions": "29 of 180 cases with Gram-positive isolates detected"}, "[1]": {"assay": "Population pharmacokinetic model", "conditions": "for CLp, typical value of apparent clearance / Vp, typical value of apparent volume of distribution: estimate (% standard error), SEM"}, "[2]": {"tested_on": "Patient bacterial isolates (Gram-positive)", "assay": "MIC of vancomycin for patient bacterial isolates", "format": "cell-based", "conditions": "majority of clinical isolates of the two study institutions, broth microdilution"}, "[3]": {"conditions": "cited from earlier work"}, "[4]": {"tested_on": "Gram-positive bacteria / MRSA", "conditions": "cited from earlier work"}, "[5]": {"conditions": "cited from earlier work", "remark": "listed apart in the source"}, "[6]": {"assay": "Therapeutic drug monitoring of serum vancomycin concentrations", "conditions": "serum TDM samples, SD"}, "[7]": {"conditions": "bootstrap of final model, 996/1000 runs successful"}}, "note": "Like-named read-outs stand apart in the source and are kept apart here."}
{"smiles": "CN[C@H](CC(C)C)C(=O)N[C@H]1C(=O)N[C@@H](CC(N)=O)C(=O)N[C@H]2C(=O)N[C@H]3C(=O)N[C@H](C(=O)N[C@H](C(=O)O)c4cc(O)cc(O)c4-c4cc3ccc4O)[C@H](O)c3ccc(c(Cl)c3)Oc3cc2cc(c3O[C@@H]2O[C@H](CO)[C@@H](O)[C@H](O)[C@H]2O[C@H]2C[C@](C)(N)[C@H](O)[C@H](C)O2)Oc2ccc(cc2Cl)[C@H]1O", "note": "[vancomycin]", "values": [{"measurement": "treatment failure rate", "setting": "Gram-positive bacteria", "result": 16, "unit": "%"}, {"measurement": "CLage>2, bootstrap median", "setting": "[1]; [7]", "result": 2.56, "unit": "L/h"}, {"measurement": "CLage≤2, bootstrap median", "setting": "[1]; [7]", "result": 1.97, "unit": "L/h"}, {"measurement": "Vd, bootstrap median", "setting": "[1]; [7]", "result": 22.2, "unit": "L"}, {"measurement": "CLp, typical value of apparent clearance", "setting": "[1]; candidate Model I, 3/4 allometric model", "result": "2.09 (4.3) L/h"}, {"measurement": "Vp, typical value of apparent volume of distribution", "setting": "[1]; candidate Model I", "result": "40.9 (14.6) L"}, {"measurement": "CLp, typical value of apparent clearance", "setting": "[1]; candidate Model II, allometric model", "result": "2.10 (4.0) L/h"}, {"measurement": "Vp, typical value of apparent volume of distribution", "setting": "[1]; candidate Model II", "result": "23.8 (28.2) L"}, {"measurement": "Vp, typical value of apparent volume of distribution", "setting": "[1]; candidate Model III", "result": "40.8 (14.5) L"}, {"measurement": "Vp, typical value of apparent volume of distribution", "setting": "[1]; candidate Model IV", "result": "23.0 (25.5) L"}, {"measurement": "CLp, typical value of apparent clearance", "setting": "[1]; candidate Model V, BW-dependent exponent model", "result": "2.30 (5.0) L/h"}, {"measurement": "Vp, typical value of apparent volume of distribution", "setting": "[1]; candidate Model V", "result": "23.3 (27.1) L"}, {"measurement": "CLp, typical value of apparent clearance", "setting": "[1]; candidate Model VI, age-dependent exponent model", "result": "2.42 (5.5) L/h"}, {"measurement": "Vp, typical value of apparent volume of distribution", "setting": "[1]; candidate Model VI", "result": "22.7 (25.5) L"}, {"measurement": "weight-adjusted typical CL", "setting": "[1]; final PPK model, age >2 years old", "result": 3.6, "unit": "mL/min/kg"}, {"measurement": "CLage>2, final model estimate", "setting": "[1]; final PPK model, age >2 years old, typical value at BW 12 kg and CLcr 75 mL/min", "result": 2.59, "unit": "L/h"}, {"measurement": "weight-adjusted typical CL", "setting": "[1]; final PPK model, age ≤2 years old", "result": 2.75, "unit": "mL/min/kg"}, {"measurement": "CLage≤2, final model estimate", "setting": "[1]; final PPK model, age ≤2 years old, typical value at BW 12 kg and CLcr 75 mL/min", "result": 1.98, "unit": "L/h"}, {"measurement": "Vd, final model estimate", "setting": "[1]; final PPK model, typical value at BW 12 kg", "result": 22.4, "unit": "L"}, {"measurement": "MIC values of clinical isolates", "setting": "[2]", "result": "≤ 1", "unit": "µg/mL"}, {"measurement": "fraction eliminated by the renal system and excreted in the urine as a prototype", "setting": "[3]; after intravenous administration", "result": "approximately 90%"}, {"measurement": "inter-individual variability (IIV) of clearance (CL)", "setting": "[3]; reported to reach as high as", "result": "≤ 99.2", "unit": "%"}, {"measurement": "known range of weight-adjusted CL in pediatric patients", "setting": "[3]; summarized in a systematic review", "result": "0.258 to 4.25", "unit": "mL/min/kg"}, {"measurement": "microbiological eradication rate", "setting": "[4]; multicenter study, Chinese children, 37.79 ± 11.31 mg/kg/day", "result": "> 80", "unit": "%"}, {"measurement": "overall clinical effective rate", "setting": "[4]; pediatric patients with median AUC/MIC between 200 and 300, ref 40 (Shen et al.)", "result": 92.6, "unit": "%"}, {"measurement": "AUC0-24 threshold for predicting vancomycin-associated nephrotoxicity", "setting": "[5]; Chinese children", "result": "< 537", "unit": "µg·h/mL"}, {"measurement": "AUC0-24 threshold for predicting vancomycin-associated nephrotoxicity", "setting": "[5]; Chinese neonates", "result": "< 480", "unit": "µg·h/mL"}, {"measurement": "Vancomycin concentration, mean ± standard deviation", "setting": "[6]; model validation dataset N = 67, 76 concentrations", "result": "6.89 ± 2.63", "unit": "mg/L"}, {"measurement": "Vancomycin concentration, mean ± standard deviation", "setting": "[6]; model-building dataset N1 = 210, 272 concentrations", "result": "8.7 ± 6.0", "unit": "mg/L"}, {"measurement": "Vancomycin concentration, mean ± standard deviation", "setting": "[6]; model-building dataset N2 = 176, 249 concentrations", "result": "8.27 ± 5.85", "unit": "mg/L"}, {"measurement": "Vancomycin concentration, mean ± standard deviation", "setting": "[6]; model-building dataset Total = 386, 521 concentrations", "result": "8.52 ± 5.93", "unit": "mg/L"}]}
